Laboratory results: PubChem BioAssay (NCI)
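Exposure lasted 48 hours, with cells grown in 96-well plates and compounds tested at five concentrations. GI50 is the concentration that inhibits growth by half. At the TGI there is no net growth.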

Key:
Assay in all cases: inhibition of tumour cell growth, NCI panel, 48 h
A549 NSCLC = system: A549 NSCLC
BT-549 breast = system: BT-549 breast
CCRF-CEM leukemia = system: CCRF-CEM leukemia
HCT-15 colon = system: HCT-15 colon
KM12 colon = system: KM12 colon
LOX IMVI melanoma = system: LOX IMVI melanoma
M14 melanoma = system: M14 melanoma
OVCAR-3 ovarian = system: OVCAR-3 ovarian
TK-10 renal = system: TK-10 renal
UO-31 renal = system: UO-31 renal

Row | SMILES | GI50 (A549 NSCLC) [µM] | TGI (A549 NSCLC) [µM] | GI50 (BT-549 breast) [µM] | TGI (BT-549 breast) [µM] | GI50 (CCRF-CEM leukemia) [nM] | TGI (CCRF-CEM leukemia) [µM] | GI50 (HCT-15 colon) [nM] | TGI (HCT-15 colon) [µM] | GI50 (KM12 colon) [µM] | TGI (KM12 colon) [µM] | GI50 (LOX IMVI melanoma) [nM] | TGI (LOX IMVI melanoma) [µM] | GI50 (M14 melanoma) [nM] | TGI (M14 melanoma) [µM] | GI50 (OVCAR-3 ovarian) [nM] | TGI (OVCAR-3 ovarian) [µM] | GI50 (TK-10 renal) [µM] | TGI (TK-10 renal) [µM] | GI50 (UO-31 renal) [nM] | TGI (UO-31 renal) [µM]
1 | Cn1c(=O)c(Oc2ccccc2F)cc2cnc(NC3CCOCC3)nc21 | > 25 | > 25 | > 25 | > 25 | > 25000 | > 25 | > 25000 | > 25 | > 25 | > 25 | > 25000 | > 25 | > 25000 | > 25 | > 25000 | > 25 | > 25 | > 25 | > 14400 | > 25
2 | CC[C@@]1(O)C(=O)NCc2c1cc1n(c2=O)Cc2cc3c(N)cccc3nc2-1 | 2.5 | > 69 | 17.8 | > 100 | 185 | > 19.5 | 11500 | > 100 | 10.6 | > 36.9 | 468 | 9.5 | 685 | > 65.8 | 11000 | 40 | 20.1 | > 52.8 | 866 | 7.12
3 | Clc1ccc2[nH]cc(-c3nc(-c4c[nH]c5ncccc45)cs3)c2c1 | 2.94 | 62.4 | 4.85 | 17.1 | 4140 | > 100 | 2600 | 7.9 | 3.17 | 12.2 | 2710 | 12.1 | 3200 | 11.1 | 6690 | 34.1 | 4.71 | 38.1 | 1360 | 28.2
4 | COc1cc(/C=C\[N+](=O)[O-])ccc1OCc1ccccc1 | 3.17 | 10.5 | 1.58 | 3.3 | 3130 | 11.5 | 1720 | 3.51 | 3.06 | 10.8 | 1000 | 2.3 | 1650 | 4.31 | 1620 | 3.71 | 1.93 | 5.27 | 1540 | 3.06
5 | CCCCNN |  | > 100 |  | > 100 |  | > 100 |  | > 100 |  | > 100 |  | > 100 |  | > 100 |  | > 100 |  | > 100 |  | > 100
6 | OCCSCc1ccccc1 |  | > 100 |  | > 100 |  | > 100 |  | > 100 |  | > 100 |  | > 100 |  | > 100 |  | > 100 |  | > 100 |  | > 100
7 | CN(C)N1C(=O)c2ccccc2NC1c1ccccc1 (stereo unspecified) |  | > 100 |  | > 100 |  | > 100 |  | > 100 |  | > 100 |  | > 100 |  | > 100 |  | > 100 |  | > 100 |  | > 100
8 | O=C(Nc1ccc(F)cc1)c1c(NC(=O)C(F)(F)F)sc2c1CCCCC2 | 2.64 | 12 | 2.08 | 6.85 | 1500 | 15.1 | 2590 | 10.8 | 1.96 | 9.23 | 2430 | 13.2 | 2910 | 13.4 | 2040 | 16.3 | 3.96 | 12.5 | 1870 | 6.9
9 | Cc1sc(C)c(Cc2c(C)sc(C)c2CCl)c1CCl | > 100 | > 100 | > 100 | > 100 | > 100000 | > 100 | > 100000 | > 100 | > 100 | > 100 | > 100000 | > 100 | > 100000 | > 100 | > 100000 | > 100 | > 100 | > 100 | > 100000 | > 100
10 | Nc1ccc(S(=O)(=O)C23CC4CC(CC(C4)C2)C3)cc1 |  | > 100 |  | > 100 |  | > 100 |  | > 100 |  | > 100 |  | > 100 |  | > 100 |  | > 100 |  | > 100 |  | > 100
11 | COC(=O)c1sc(C(=O)OC)c2c1CSC2 |  | > 100 |  | > 100 |  | > 100 |  | > 100 |  | > 100 |  | > 100 |  | > 100 |  | > 100 |  | > 100 |  | > 100
12 | CC(C)c1ccc(/C(C(=O)O)=C(\O)C(=O)O)cc1 |  | > 100 |  | > 100 |  | > 100 |  | > 100 |  | > 100 |  | > 100 |  | > 100 |  | > 100 |  | > 100 |  | > 100
13 | NC(=O)c1cc(Br)cc(C2CCCCC2)c1O | 13.4 | 27.1 | 13.6 | 26.4 | 15100 | 39.8 | 13700 | 30.7 | 11.7 | 24.5 | 13200 | 26 | 12800 | 25.6 | 13200 | 25.9 | 13.4 | 28.1 | 2510 | 18.3
14 | Cc1cc(C)c(C[N+](C)(C)C)c(C)c1C | 0.281 | 39.1 | 0.619 | 7.36 | 201 | > 67.5 | 313 | 19.4 | 0.33 | 24.2 | 306 | 9.13 | 374 | 11.1 | 638 | 15.3 | 0.528 | 12.1 | 333 | 42.8
15 | N#Cc1cnc2cc(OC[C@@H](O)CO)c(NC(=O)CC3CSSC3)cc2c1Nc1ccc(OCc2cccc(F)c2)c(Cl)c1 | 0.842 | 1.72 | 0.155 | 0.523 | 60.3 | 0.16 | 1630 | 6.51 | 0.112 | 0.251 | 2170 | 3.08 | 82.8 | 0.175 | 284 | 0.913 | 0.772 | 1.51 | 1630 | 5.5
16 | OCC1OC(n2ccc3c(NO)ncnc32)C(O)C1O (stereo unspecified) | 0.087 | 3.58 | 0.193 | 0.764 | 159 | 0.692 | 118 | 1.52 | 0.234 | 1.12 | 66.5 | 1.27 | 77 | 0.578 | 249 | 0.884 | 0.152 | 1.16 | 53.6 | 0.502
17 | N#Cc1c(-c2ccccc2)cc(-c2ccc(Nc3nc(Nc4ccc(Cl)cc4)nc(Nc4ccc(Cl)cc4)n3)cc2)nc1N | 11 | > 100 | 5.2 | 24.2 | 3100 | 9.4 | 1560 | 5.1 | 2.91 | 11.4 | 1850 | 4.33 | 1790 | 3.67 | 1700 | 3.68 | 1.89 | 4.4 | 1100 | 2.33
18 | O=c1nc(Nc2cccc(Cl)c2)oc2cc(Cl)oc(=O)c12 | 19.7 | 60.6 | 22.5 | 95.7 | 2870 | 14.9 | 5820 | 28.3 | 11.4 | 31.8 | 11900 | > 100 | 8370 | 26.9 | 3480 | 13.3 | 5.11 | 24 | 5460 | 21.7
19 | C#CC1(O)C(COP(=O)(O)OC2CC(n3cc(F)c(=O)[nH]c3=O)OC2CO)OC(n2ccc(N)nc2=O)C1O (stereo unspecified) | < 0.01 | > 54.4 | < 0.0157 | 0.909 | < 12.9 |  | < 10 | > 38.9 | < 0.01 | > 29 | < 10 | 1.87 | < 21.1 | 0.774 | 31 |  | 0.0273 | > 42.8 | < 12.8 | 
20 | O=C(NCCCNc1cc(-c2cn(-c3ccccc3)nc2-c2cccc(O)c2)ccn1)c1ccccc1 | 4.62 | 34.4 | 2.72 | 9.47 | 3140 | 54.7 | 1510 | 5.12 | 3.34 | 14.8 | 2250 | 6.36 | 2560 | 6.72 | 3730 | 21 | 8.39 | 52.6 | 2360 | 23.6
21 | O=C1C=C(Br)C(=O)C12CCc1ccccc12 (stereo unspecified) |  | 55.4 |  | 34.2 |  | > 27.5 |  | 19.7 |  | 44.6 |  | 31.7 |  | 19.3 |  | 41.8 |  | 32.3 |  | 33
22 | CN1CCCN(C)C1c1cc([N+](=O)[O-])ccc1O |  | > 100 |  | > 100 |  | 48.5 |  | > 100 |  | > 100 |  | > 100 |  | 58.5 |  | > 100 |  | > 100 |  | 64.8
23 | C=C1C(=O)O[C@H]2[C@H]1CC/C(COC(=O)NCc1ccc(Cn3c(=O)sn(CCCCl)c3=O)cc1)=C\CC[C@@]1(C)O[C@@H]21 | 19.2 | 34.6 | 1.48 | 2.91 | 577 | 4.03 | 1940 | 4.25 | 4.92 | 17.5 | 1580 | 3.09 | 1930 | 4.5 | 776 | 2.09 | 1.75 | 3.34 | 1400 | 2.75
24 | O=S(=O)(NCC1CCC(CNc2ccc(Cl)cc2)CC1)c1ccc(-c2ccccc2)cc1 (stereo unspecified) | 9.21 | > 50 | > 50 | > 50 | > 50000 | > 50 | > 50000 | > 50 | > 50 | > 50 | 45700 | > 50 | > 50000 | > 50 | 10700 | > 50 | 22.8 | > 50 | > 50000 | > 50
25 | CCCCCCCCCCN(CCCCCCCCCC)CC(=O)c1ccc2cc(Br)c3ccccc3c2c1 | 4.15 | 14.4 | 10.9 | 23.6 | 2360 | 6.96 | 1520 | 3.34 | 1.88 | 3.66 | 1750 | 3.32 | 1910 | 3.53 | 1980 | 3.54 | 1.76 | 3.26 | 1860 | 7.2
26 | Cn1ncc2c(N)nc(N3CCCCC3)nc21 | 66.1 | > 100 | 31.9 | > 100 | 25700 | 85.7 | 26200 | 82.5 | 26.2 | 82.8 | 22700 | 51.4 | 42600 | > 100 | 19900 | 71.7 | 22.9 | 77.8 | 43000 | > 100
27 | COc1cc2c3c(n(CCCNCCN)c(=O)c2cc1OC)-c1cc2c(cc1C3=O)OCO2 | 1.61 | 13.7 | 1.56 | 9.7 | < 10.5 | 0.339 |  | > 40.3 | 1.48 | 7.19 | 29.9 | 0.244 | 738 | 5.26 | 363 | 1.21 | 2.9 | 18.9 | 5260 | > 32.9
28 | CCOC(=O)C(=Cc1ccccc1[N+](=O)[O-])C(=O)OCC | 4.05 | 17.5 | 5.28 | 17.3 | 3130 | 20.6 | 1830 | 4.47 | 2.72 | 10.3 | 1580 | 3.51 | 2950 | 10.1 | 2650 | 6.48 | 5.39 | 15.7 | 4520 | 15.9
